Measured values as given in patent publication US10857150B2, “Use of sanglifehrin macrocyclic analogues as anticancer compounds” (NEUROVIVE PHARMACEUTICAL AB, priority 2016, dated 2020).
pIC50: −log10 of the molar value.

Columns and labels:
LIXC-086 = assay: 7-day proliferation assay, Calcein AM staining; type: cell-based, human; conditions: Homo sapiens, 168 h
Protocol: (§1) The cells were seeded in a 96-well plate, test compound or DMSO was added and the plate was incubated for additional four days or 7 days (Calcein AM assay). Viable cell counts were determined after detachment by treatment with trypsin either by trypan blue exclusion, flow cytometry, indirectly by measuring ATP content by addition of an ATP measuring reagent (CellTiter Glo), or Calcein AM, prepared according to the instruction of the manufacturer directly.
(§2) XLfit software ((Fit model: Dose response one site/^F(x)[fit=(A+((B−A)/(1+((C/x)^D))))]) for curve fitting and IC50 calculation) was used for curve fitting and IC50 calculation.
(§3) In vitro evaluation of a sanglifehrin macrocyclic analogue (1) for anticancer activity against human hepatocyte cancer cell lines in comparison with NV556 (10) a 7-day proliferation assay. The cell numbers were determined by Calcein AM staining as described in the methods section. Data are from one experiment with each cell line testing duplicate samples of 9 concentrations of each compound. Both compounds were included in each experiment.
as §3, with “the cyclophilin inhibitor alisporivir and the kinase inhibitor sorafenib in” for “NV556 (10)”, “one single” for “one”, “or means of two independent experiments” for “with each cell line”, “All three” for “Both”

LIXC-006 = assay: 7-day proliferation assay, Calcein AM staining; type: cell-based, human; conditions: Homo sapiens, 168 h
Protocol: as §1, §2, §3
as §3, with “the cyclophilin inhibitor alisporivir and the kinase inhibitor sorafenib in” for “NV556 (10)”, “one single” for “one”, “or means of two independent experiments” for “with each cell line”, “All three” for “Both”

Hep3B2.1-7-Luc = assay: 7-day proliferation assay, Calcein AM staining; type: cell-based, human; conditions: Homo sapiens, 168 h
Protocol: as §1, §2, §3
as §3, with “the cyclophilin inhibitor alisporivir and the kinase inhibitor sorafenib in” for “NV556 (10)”, “one single” for “one”, “or means of two independent experiments” for “with each cell line”, “All three” for “Both”

LIXC-066 = assay: 7-day proliferation assay, Calcein AM staining; type: cell-based, human; conditions: Homo sapiens, 168 h
Protocol: as §1, §2, §3
as §3, with “the cyclophilin inhibitor alisporivir and the kinase inhibitor sorafenib in” for “NV556 (10)”, “one single” for “one”, “or means of two independent experiments” for “with each cell line”, “All three” for “Both”

LIXC-004 = assay: 7-day proliferation assay, Calcein AM staining; type: cell-based; conditions: Homo sapiens, 168 h, Example 6, n 2
Protocol: as §1, §2
as §3, with “the cyclophilin inhibitor alisporivir and the kinase inhibitor sorafenib in” for “NV556 (10)”, “one single” for “one”, “or means of two independent experiments” for “with each cell line”, “All three” for “Both”

LIXC-012 = assay: 7-day proliferation assay, Calcein AM staining; type: cell-based; conditions: Homo sapiens, 168 h, Example 6, n 2
Protocol: as §1, §2
as §3, with “the cyclophilin inhibitor alisporivir and the kinase inhibitor sorafenib in” for “NV556 (10)”, “one single” for “one”, “or means of two independent experiments” for “with each cell line”, “All three” for “Both”

LIXC-003 = assay: 7-day proliferation assay, Calcein AM staining; type: cell-based; conditions: Homo sapiens, 168 h, Example 6, n 2
Protocol: as §1, §2
as §3, with “the cyclophilin inhibitor alisporivir and the kinase inhibitor sorafenib in” for “NV556 (10)”, “one single” for “one”, “or means of two independent experiments” for “with each cell line”, “All three” for “Both”

LIXC-011 = assay: 7-day proliferation assay, Calcein AM staining; type: cell-based; conditions: Homo sapiens, 168 h, Example 6, n 1
Protocol: as §1, §2
as §3, with “the cyclophilin inhibitor alisporivir and the kinase inhibitor sorafenib in” for “NV556 (10)”, “one single” for “one”, “or means of two independent experiments” for “with each cell line”, “All three” for “Both”

HepG2 [1] = assay: 7-day proliferation assay, Calcein AM staining; type: cell-based; conditions: Homo sapiens, 168 h, Example 6, n 2
Protocol: as §1, §2
as §3, with “the cyclophilin inhibitor alisporivir and the kinase inhibitor sorafenib in” for “NV556 (10)”, “one single” for “one”, “or means of two independent experiments” for “with each cell line”, “All three” for “Both”

LIXC-002 = assay: 7-day proliferation assay, Calcein AM staining; type: cell-based, human; conditions: Homo sapiens, 168 h, Example 5, one experiment
Protocol: as §1, §2, §3

HepG2 [2] = assay: combination with sorafenib, 7-day proliferation assay (Calcein AM), isobologram; type: cell-based, human; conditions: combination with sorafenib at different doses
Protocol: as §1
To test for potential synergistic activity with sorafenib, compound 1 (A) was added at a range of concentrations along with a range of concentrations of sorafenib (B) against a liver cancer cell line, HepG2 in a 7-day proliferation assay (Calcein AM assay, described in the methods section). Data are from one single experiment representative of two independent experiments testing duplicate samples. The data was plotted in a normalized isobologram (Chou and Martin. CompuSyn for Drug Combinations: PC Software and User's Guide: A Computer Program for Quantitation of Synergism and Antagonism in Drug Combinations, and the Determination of IC50 and ED50 and LD50 Values, ComboSyn Inc, Paramus, (NJ), 2005) and is shown in FIG. 7. Values at the lower left below the hypotenuse indicate synergism.

[3] = test system: human hepatocyte cancer cell lines; assay: 7-day proliferation assay, comparison of potency over the cell lines; type: cell-based
Protocol: as §1, §3
as §3, with “the cyclophilin inhibitor alisporivir and the kinase inhibitor sorafenib in” for “NV556 (10)”, “one single” for “one”, “or means of two independent experiments” for “with each cell line”, “All three” for “Both”

cyclophilin A (CyPA) = cyclophilin A (CyPA) (Homo sapiens, UniProt P62937); conditions: cited from earlier work
cyclophilin A (CyPA), sequence (P62937 whole entry, species assumed): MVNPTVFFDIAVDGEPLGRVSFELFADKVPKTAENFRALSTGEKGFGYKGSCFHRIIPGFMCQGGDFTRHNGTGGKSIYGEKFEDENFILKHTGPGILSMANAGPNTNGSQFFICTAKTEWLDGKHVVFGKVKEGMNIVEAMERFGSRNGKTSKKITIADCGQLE

[4] = test system: cancer cell lines Huh7, HepG2 and OEM; conditions: three cancer cell lines Huh7, HepG2 and OEM; WO2011/098805; cited from earlier work

CC(=O)CC[C@H]1C(=O)N[C@@H](C(C)C)C(=O)N[C@@H](Cc2cc(O)cc(F)c2)C(=O)N2CCCC(N2)C(=O)O[C@H](/C(C)=C/C=C/C(=O)OC(C)(C)C)C/C=C/C=C/[C@H](O)[C@H](C)[C@H]1O (stereo partly drawn) [Compound 1]
pIC50 (LIXC-086; Example 5, one experiment): 6.04
pIC50 (LIXC-086; Example 6, n 1): 6.16
pIC50 (LIXC-006; Example 5, one experiment): 8.05
pIC50 (LIXC-006; Example 6, n 2): 8.22
pIC50 (Hep3B2.1-7-Luc; Example 5, one experiment): 7.96
pIC50 (Hep3B2.1-7-Luc; Example 6, n 1): 8.05
pIC50 (LIXC-066; Example 5, one experiment): 7.03
pIC50 (LIXC-066; Example 6, n 1): 6.77
pIC50 (LIXC-004): 8.40
pIC50 (LIXC-012): 7.19
pIC50 (LIXC-003): 8.10
pIC50 (LIXC-011): 7.92
pIC50 (HepG2 [1]): 8.15
pIC50 (LIXC-002): > 8.52
growth inhibitory effect of simultaneous treatment (HepG2 [2]): synergistic growth inhibitory effect
potency relative to NV556 (10) ([3]; Example 5, all cases (5 cell lines)): 3-10 fold
potency relative to alisporivir ([3]; Example 6, all cases (9 cell lines)): 3-1000 fold
potency relative to sorafenib ([3]; Example 6, in 8/9 cases): 3-600 fold

CC[C@H]1C[C@H](C)[C@@]2(NC1=O)O[C@@H](C[C@H](O)[C@@H](C)CC/C=C/C=C(\C)[C@@H]1C/C=C/C=C/[C@H](O)[C@H](C)[C@@H](O)[C@@H](CCC(C)=O)C(=O)N[C@@H](C(C)C)C(=O)N[C@@H](Cc3cccc(O)c3)C(=O)N3CCC[C@H](N3)C(=O)O1)[C@H](C)[C@H](O)[C@@H]2C [SfA, Sanglifehrin A]
affinity for CyPA compared to CsA (cyclophilin A (CyPA); higher affinity): approximately 20 fold

CC(=O)CCC1C(=O)NC(C(C)C)C(=O)NC(Cc2cccc(O)c2)C(=O)N2CCCC(N2)C(=O)OC(C(C)=CC=CC(=O)OC(C)(C)C)CC=CC=CC(O)C(C)C1O (stereo not drawn) [compound 9]
effect on cancer cell lines [4]: limited effect

CC(=O)CCC1C(=O)NC(C(C)C)C(=O)NC(Cc2cccc(O)c2)C(=O)N2CCCC(N2)C(=O)OC(C(C)=CCO)CC=CC=CC(O)C(C)C1O (stereo not drawn) [hydroxymacrocycle]
affinity for CyPA (cyclophilin A (CyPA); Sedrani et al., 2003): strong affinity
